Data on 22 molecules can be found in patent US20240132525A1, “BORON […], CO[…], METHODS AND USES THEREOF” (priority 2022, published 2024).

In data set [1] the target is JAK2 (Homo sapiens (Human), UniProt O60674). The experiment in a line: Biochemical kinase assay (33P-ATP filter-binding), JAK2. Conditions: read-out: IC50 JAK2. The source says:
(§1) Biochemical Kinase Assay Protocol (JAK)
(§2) Reaction Procedure: • 1. […] Detected kinase activity by filter-binding method.

Data set [2] concerns the target JAK1 (Homo sapiens (Human), UniProt P23458). The experiment in a line: Biochemical kinase assay (33P-ATP filter-binding), JAK1. Particulars: read-out: IC50 JAK1.
Source text: as §1, §2

A short description of data set [3]: Dog LM (liver microsome) assay. Type of data set: in vitro ADME. Particulars: Table 3a; predicted clearance as percent of liver blood flow, 1 μM, 1 mg/ml microsomal protein. As to the method:
Dog LM (Liver Microsome) Assay
The metabolic degradation of the test compound is assayed at 37° C. with pooled liver microsomes from dogs (Beagle). The final incubation volume of 100 μl per time point contains TRIS buffer pH 7.6 at RT (0.1 M), magnesium chloride (5 mM), microsomal protein (1 mg/ml) and the test compound at a final concentration of 1 μM. Following a short preincubation period at 37° C., the reactions were initiated by addition of beta-nicotinamide adenine dinucleotide phosphate, reduced form (NADPH, 1 mM) and terminated by transferring an aliquot into solvent after different time points. Additionally, the NADPH-independent degradation was monitored in incubations without NADPH, terminated at the last time point. The [%] remaining test compound after NADPH independent incubation is reflected by the parameter c (control) (metabolic stability). The quenched incubations are pelleted by centrifugation (10000 g, 5 min). An aliquot of the supernatant is assayed by LC-MS/MS for the amount of parent compound. The half-life (t½ INVITRO) is determined by the slope of the semilogarithmic plot of the concentration-time profile. The intrinsic clearance (CL_[…]) is calculated by considering the amount of protein in the incubation: CL_[…] [μl/min/mg protein]=(Ln 2/(half-life [min]*protein content [mg/ml]))*1000. For better across species comparison the predicted clearance is expressed as percent of the liver blood flow [% QH] in the individual species. In general, high stability (corresponding to low % QH) of the compounds across species is desired.

SMILES strings stand for the structures. Read-outs that look alike come from different tables or passages of the source. A value given as a limit tells only on which side of the number the result lay.

Sequence of JAK2 (O60674 whole entry, species assumed): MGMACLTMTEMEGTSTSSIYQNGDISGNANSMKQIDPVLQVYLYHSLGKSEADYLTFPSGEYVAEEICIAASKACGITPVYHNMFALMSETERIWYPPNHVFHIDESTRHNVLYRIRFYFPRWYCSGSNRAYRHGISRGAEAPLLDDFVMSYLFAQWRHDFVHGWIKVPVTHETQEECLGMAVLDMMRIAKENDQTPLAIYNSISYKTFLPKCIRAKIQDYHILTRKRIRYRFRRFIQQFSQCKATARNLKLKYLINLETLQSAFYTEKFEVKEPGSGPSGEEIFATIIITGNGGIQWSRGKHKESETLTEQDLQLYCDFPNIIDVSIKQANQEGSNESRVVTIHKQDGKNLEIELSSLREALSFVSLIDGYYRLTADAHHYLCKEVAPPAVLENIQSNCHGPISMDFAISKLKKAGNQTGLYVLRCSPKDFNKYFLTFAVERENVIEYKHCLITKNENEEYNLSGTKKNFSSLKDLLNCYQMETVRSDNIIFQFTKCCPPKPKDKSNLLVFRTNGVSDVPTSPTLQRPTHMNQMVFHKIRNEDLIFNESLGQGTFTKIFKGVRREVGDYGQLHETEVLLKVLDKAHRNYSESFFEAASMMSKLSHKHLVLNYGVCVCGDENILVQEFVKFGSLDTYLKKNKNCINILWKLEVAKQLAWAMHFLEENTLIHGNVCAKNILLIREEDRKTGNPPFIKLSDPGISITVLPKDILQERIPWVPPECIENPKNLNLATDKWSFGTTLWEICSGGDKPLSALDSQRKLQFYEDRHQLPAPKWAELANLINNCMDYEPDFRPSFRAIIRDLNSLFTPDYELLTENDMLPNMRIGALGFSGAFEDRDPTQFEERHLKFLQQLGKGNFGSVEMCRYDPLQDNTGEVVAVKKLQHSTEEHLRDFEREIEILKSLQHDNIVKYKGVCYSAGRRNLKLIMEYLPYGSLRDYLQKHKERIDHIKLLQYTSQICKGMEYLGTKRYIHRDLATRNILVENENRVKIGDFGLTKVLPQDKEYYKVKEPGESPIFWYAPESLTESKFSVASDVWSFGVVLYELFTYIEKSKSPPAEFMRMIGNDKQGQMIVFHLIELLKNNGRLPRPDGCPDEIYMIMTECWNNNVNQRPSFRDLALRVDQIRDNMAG
Sequence of JAK1 (P23458 whole entry, species assumed): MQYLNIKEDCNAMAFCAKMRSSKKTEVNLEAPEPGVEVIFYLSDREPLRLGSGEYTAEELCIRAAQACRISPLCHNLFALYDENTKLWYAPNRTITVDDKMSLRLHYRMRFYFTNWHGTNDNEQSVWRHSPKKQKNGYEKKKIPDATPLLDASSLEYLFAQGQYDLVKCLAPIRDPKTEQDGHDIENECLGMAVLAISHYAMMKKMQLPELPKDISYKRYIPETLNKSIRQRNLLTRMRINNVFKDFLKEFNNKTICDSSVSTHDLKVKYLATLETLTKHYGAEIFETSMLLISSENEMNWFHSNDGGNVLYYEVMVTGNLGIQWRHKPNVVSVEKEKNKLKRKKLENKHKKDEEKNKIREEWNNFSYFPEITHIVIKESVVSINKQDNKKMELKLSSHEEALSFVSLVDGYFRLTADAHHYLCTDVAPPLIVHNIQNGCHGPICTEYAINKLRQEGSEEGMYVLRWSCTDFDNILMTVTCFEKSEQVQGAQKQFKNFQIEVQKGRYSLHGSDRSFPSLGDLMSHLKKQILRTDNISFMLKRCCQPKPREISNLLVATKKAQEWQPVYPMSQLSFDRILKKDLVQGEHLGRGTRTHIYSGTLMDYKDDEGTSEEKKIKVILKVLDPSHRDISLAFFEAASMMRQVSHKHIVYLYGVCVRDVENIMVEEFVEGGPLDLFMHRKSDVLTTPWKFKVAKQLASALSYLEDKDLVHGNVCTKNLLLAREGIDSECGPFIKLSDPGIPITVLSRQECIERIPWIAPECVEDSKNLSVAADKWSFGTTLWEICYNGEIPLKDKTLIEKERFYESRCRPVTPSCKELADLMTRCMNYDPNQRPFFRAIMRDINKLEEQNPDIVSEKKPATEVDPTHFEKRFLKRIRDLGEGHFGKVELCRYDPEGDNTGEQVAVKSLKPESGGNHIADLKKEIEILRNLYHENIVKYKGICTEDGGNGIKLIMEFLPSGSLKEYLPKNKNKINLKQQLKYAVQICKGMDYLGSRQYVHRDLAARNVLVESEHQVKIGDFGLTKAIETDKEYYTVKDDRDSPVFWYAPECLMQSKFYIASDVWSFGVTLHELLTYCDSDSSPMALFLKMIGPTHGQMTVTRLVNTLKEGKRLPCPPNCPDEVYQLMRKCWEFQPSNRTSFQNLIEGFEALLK

Take `N#C[C@@H]1CCOC[C@H]1Nc1nc(Nc2cc(Cl)c3c(c2)COB3O)ncc1Cl` (relative stereo) [Example 048, (trans)-3-[[5-chloro-2-[(7-chloro-1-hydroxy-3H-2,1-benzoxaborol-5-yl)amino]pyrimidin-4-yl]amino]tetrahydropyran-4-carbonitrile]: the IC50 in data set [1] (Table 3a) turned out to be 15.6 nM; in data set [2] (Table 3a), 0.6 nM.

Consider `Cc1cnc(Nc2cc(Cl)c3c(c2)COB3O)nc1NC1CCCC[C@@H]1C#N` (single isomer, unassigned) [Example 010b, (trans)-2-[[2-[(7-chloro-1-hydroxy-3H-2,1-benzoxaborol-5-yl)amino]-5-methyl-pyrimidin-4-yl]amino]cyclohexanecarbonitrile], for which, in data set [3], the “Dog LM QH” value is under 19.9%.

Regarding `Cc1cnc(Nc2cc(Cl)c3c(c2)COB3O)nc1N[C@@H]1CCCOC1` [Example 030a], the “Dog LM QH” value in data set [3] was under 19.9%. Also, the IC50 is 868 nM in data set [1] (Table 3a) and 51.1 nM in data set [2] (Table 3a).

With `Cc1cnc(Nc2cc3c(c(C(F)(F)F)c2)B(O)OC3)nc1N[C@H]1COC[C@@H]1C#N` (single isomer, unassigned) [Example 043b, (trans)-4-[[2-[[1-hydroxy-7-(trifluoromethyl)-3H-2,1-benzoxaborol-5-yl]amino]-5-methyl-pyrimidin-4-yl]amino]tetrahydrofuran-3-carbonitrile], the “Dog LM QH” value in data set [3] is given as under 19.9%. Also, the IC50 in data set [1] (Table 3a) is 298 nM; in data set [2] (Table 3a), 7.6 nM.

On to `Cc1cnc(Nc2ccc3c(c2)C=CB(O)O3)nc1N[C@@H]1CCC[C@H]1C#N` (relative stereo) [Example 007, (trans)-2-((2-((2-hydroxy-2H-benzo[e][1,2]oxaborinin-6-yl)amino)-5-methylpyrimidin-4-yl)amino)cyclopentane-1-carbonitrile], for which the IC50 was 52.6 nM in data set [1] (Table 3a) and 5.3 nM in data set [2] (Table 3a).

For `Cc1cnc(Nc2cc(Cl)c3c(c2)C(C(C)C)=CB(O)O3)nc1N[C@H]1COCC[C@@H]1C#N` (single isomer, unassigned) [Example 040a, (trans)-3-((2-((8-chloro-2-hydroxy-4-isopropyl-2H-benzo[e][1,2]oxaborinin-6-yl)amino)-5-methylpyrimidin-4-yl)amino)tetrahydro-2H-pyran-4-carbonitrile], in data set [3], the “Dog LM QH” value was 32.9%. In addition, the IC50 in data set [1] (Table 3a) and in data set [2] (Table 3a) was over 1000 nM throughout.

With `Cc1cnc(Nc2cc3c4c(c2)OCCOB4OC3)nc1N[C@@H]1CCC[C@H]1C#N` (relative stereo) [Example 004, (trans)-2-((2-((7,8-dihydro-2H-1,6,9-trioxa-9a-borabenzo [cd]azulen-4-yl)amino)-5-methylpyrimidin-4-yl)amino)cyclopentane-1-carbonitrile], the IC50 in data set [1] (Table 3a) amounted to 49.7 nM; in data set [2] (Table 3a), 1.6 nM.

For the molecule `Cc1cnc(Nc2cc(Cl)c3c(c2)COB3O)nc1N[C@H]1CCCC[C@@H]1C#N` (single isomer, unassigned) [Example 010b, (trans)-2-[[2-[(7-chloro-1-hydroxy-3H-2,1-benzoxaborol-5-yl)amino]-5-methyl-pyrimidin-4-yl]amino]cyclohexanecarbonitrile], the IC50 in data set [1] (Table 3a) was found to be 811 nM; in data set [2] (Table 3a), 22.3 nM.

In the case of `Cc1cnc(Nc2cc3c4c(c2)OCCOB4OC3)nc1NC1CCCCC1C#N` (stereo not drawn) [Example 013, (trans)-2-((2-((7,8-dihydro-2H-1,6,9-trioxa-9a-borabenzo[c,d]azulen-4-yl)amino)-5-methylpyrimidin-4-yl)amino)cyclohexane-1-carbonitrile], the IC50 in data set [1] (Table 3a) worked out at 101 nM; in data set [2] (Table 3a), 2.6 nM.

For `N#C[C@@H]1CCC[C@H]1Nc1nc(Nc2cc(Cl)c3c(c2)COB3O)ncc1C(F)(F)F` (relative stereo) [Example 022, (trans)-2-[[2-[(7-chloro-1-hydroxy-3H-2,1-benzoxaborol-5-yl)amino]-5-(trifluoromethyl)pyrimidin-4-yl]amino]cyclopentanecarbonitrile], the results for the IC50 in data set [1] (Table 3a) and in data set [2] (Table 3a) were 7.5 nM and 3.3 nM, respectively.

As for `Cc1cnc(Nc2ccc3c(c2)C=CB(O)O3)nc1N[C@@H]1CCCC[C@H]1C#N` (relative stereo) [Example 015, (trans)-2-[[2-[(2-hydroxy-1,2-benzoxaborinin-6-yl)amino]-5-methyl-pyrimidin-4-yl]amino]cyclohexanecarbonitrile], the values for the IC50 in data set [1] (Table 3a) and in data set [2] (Table 3a) were 103 nM and 9 nM, respectively.

As to `N#C[C@@H]1CCCC[C@H]1Nc1nc(Nc2cc(Cl)c3c(c2)COB3O)ncc1C(F)(F)F` (relative stereo) [Example 021, (trans)-2-((2-((7-chloro-1-hydroxy-1,3-dihydrobenzo[c][1,2]oxaborol-5-yl)amino)-5-(trifluoromethyl)pyrimidin-4-yl)amino)cyclohexanecarbonitrile], the IC50 was found to be 3.2 nM in data set [1] (Table 3a) and 2.7 nM in data set [2] (Table 3a).

As to `N#C[C@@H]1CCCC[C@H]1Nc1nc(Nc2cc(Cl)c3c(c2)COB3O)ncc1Cl` (relative stereo) [Example 019, (trans)-2-((5-chloro-2-((7-chloro-1-hydroxy-1,3-dihydrobenzo[c][1,2]oxaborol-5-yl)amino)pyrimidin-4-yl)amino)cyclohexane-1-carbonitrile], the IC50 in data set [1] (Table 3a) stood at 3.2 nM; in data set [2] (Table 3a) it was 0.2 nM.

`Cc1cnc(Nc2cc(C#N)c3c(c2)COB3O)nc1N[C@@H]1COCC[C@H]1C#N` (relative stereo) [Example 045, 5-((4-(((trans)-4-cyanotetrahydro-2H-pyran-3-yl)amino)-5-methylpyrimidin-2-yl)amino)-1-hydroxy-1,3-dihydrobenzo[c][1,2]oxaborole-7-carbonitrile]: the half-inhibitory concentration (IC50) in data set [1] (Table 3a) stood at 10.6 nM; in data set [2] (Table 3a), 0.5 nM.

For the molecule `N#C[C@@H]1CCOC[C@H]1Nc1nc(Nc2cc(Cl)c3c(c2)COB3O)ncc1F` (relative stereo) [Example 046, (trans)-3-((2-((7-chloro-1-hydroxy-1,3-dihydrobenzo[c][1,2]oxaborol-5-yl)amino)-5-fluoropyrimidin-4-yl)amino) tetrahydro-2H-pyran-4-carbonitrile], the IC50 in data set [1] (Table 3a) came to 186 nM; in data set [2] (Table 3a) it was 3.4 nM.

As to `Cc1cnc(Nc2ccc3c(c2)C(C)OB3O)nc1NC1COCCC1C#N` (stereo not drawn) [Example 028, (trans)-3-[[2-[(1-hydroxy-3-methyl-3H-2,1-benzoxaborol-5-yl)amino]-5-methyl-pyrimidin-4-yl]amino]tetrahydropyran-4-carbonitrile], the IC50 in data set [1] (Table 3a) is 3.5 nM; in data set [2] (Table 3a), 0.5 nM.

For the molecule `OB1OCc2cc(Nc3ncc(F)c(NC4CCCC4)n3)ccc21` [Example C013], the IC50 in data set [1] (Table 3b, comparator compounds) turned out to be 705 nM; in data set [2] (Table 3b, comparator compounds) it was 32.3 nM.

On to `Cc1cc(Nc2ncc(Cl)c(NC3CCCCC3C#N)n2)cc2c1B(O)OC2` (stereo not drawn) [Example 024, 2-[[5-chloro-2-[(1-hydroxy-7-methyl-3H-2,1-benzoxaborol-5-yl)amino]pyrimidin-4-yl]amino]cyclohexanecarbonitrile], for which the IC50 in data set [1] (Table 3a) came to 11.2 nM; in data set [2] (Table 3a), 5.9 nM.

`N#C[C@@H]1CCOC[C@H]1Nc1nc(Nc2ccc3c(c2)COB3O)ncc1Cl` (relative stereo) [Example 047, (trans)-3-((5-chloro-2-((1-hydroxy-1,3-dihydrobenzo[c][1,2]oxaborol-5-yl)amino)pyrimidin-4-yl)amino)tetrahydro-2H-pyran-4-carbonitrile]: the IC50 in data set [1] (Table 3a) is 7.6 nM; in data set [2] (Table 3a) it was 0.34 nM.

As for `N#C[C@@H]1CCCC[C@H]1Nc1nc(Nc2cc(F)c3c(c2)COB3O)ncc1Cl` (relative stereo) [Example 023, (trans)-2-((5-chloro-2-((7 fluoro-1-hydroxy-1,3-dihydrobenzo[c][1,2]oxaborol-5-yl)amino)pyrimidin-4-yl)amino)cyclohexane-1-carbonitrile], the IC50 was determined as 0.6 nM in data set [1] (Table 3a) and 0.2 nM in data set [2] (Table 3a).

For `N#C[C@@H]1CCCC[C@H]1Nc1nc(Nc2cc(Cl)c3c(c2)COB3O)ncc1F` (relative stereo) [Example 020, (trans)-2-[[2-[(7-chloro-1-hydroxy-3H-2,1-benzoxaborol-5-yl)amino]-5 fluoropyrimidin-4-yl]amino]cyclohexanecarbonitrile], the IC50 in data set [1] (Table 3a) was found to be 50.7 nM; in data set [2] (Table 3a) it was 1.4 nM.

In the case of `Cc1cnc(Nc2cc(Cl)c3c(c2)COB3O)nc1N[C@@H]1COCC[C@H]1C#N` (single isomer, unassigned) [Example 031a, (trans)-3-((2-((7-chloro-1-hydroxy-1,3-dihydrobenzo[c][1,2]oxaborol-5-yl)amino)-5-methylpyrimidin-4-yl)amino)tetrahydro-2H-pyran-4-carbonitrile], the “Dog LM QH” value in data set [3] was under 19.9%.
